The numbers were not newly measured in patent US6833085B2, “Agent for restricting elution of phosphorus, method for producing the same, and method of restricting elution of phosphorus in sludge” (priority 2003, dated 2004), which cites them from elsewhere.

For this series the following is noted: for Amount of diluted phosphorus: aqueous solution added into sludge.

Like-named read-outs stand apart in the source and are kept apart here.

For the compound alum, the “Amount of diluted phosphorus” value by setting is: (concentration 0.21%) 407 µg/L; (concentration 0.42%) 490 µg/L.
For `O=[N+]([O-])[O-].O=[N+]([O-])[O-].[Ca+2]` [Calcium nitrate, calcium nitrate], the “Amount of diluted phosphorus” value reads like this: (concentration 0.35%) 67 µg/L; (concentration 0.70%) 13 µg/L. Also, the “Inhibition of elution of phosphorus” value (injecting a 0.7% aqueous solution) is recorded as 98%.
On to `[Cl][Fe]([Cl])[Cl]` [Ferric chloride, ferric chloride], for which the “Amount of diluted phosphorus” value (concentration 0.16%) was 234 µg/L and the “Amount of diluted phosphorus” value (concentration 0.32%) was 402 µg/L.
